Values after ≈ are worked out from the molar mass of the structure shown.

Holding throughout (type): functional
Holding throughout (details): read-out: ED50 (the source's name)

One test deals with P388. The experiment in a line: Cytotoxicity against mouse P388 cells.
The next test has as its system SK-MEL-28. Nature of the test: Cytotoxicity against human SK-MEL-28 cells.
The next test relates to HT-29. Nature of the test: Cytotoxicity against human HT-29 cells.
The next test has as its system A549. Nature of the test: Cytotoxicity against human A549 cells.

As to `C=C1C[C@H]2O[C@H]([C@H]3[C@@H]2[C@](C)(OC(C)=O)CC[C@@H]3C(C)C)[C@](C)(OC(C)=O)CC[C@@H]1OC(C)=O` [PALMONINE B], the EC50 with P388 and in the test on SK-MEL-28 was 5 µg/mL (≈ 10.8 µM) each time.

Take `CC(=O)O[C@]1(C)CC[C@H](C(C)C)[C@@H]2[C@H]1[C@H]1/C=C(/C)C(=O)CC[C@@](C)(OC(C)=O)[C@@H]2O1` [PALMONINE E]: the EC50 in the test with P388, with HT-29, with SK-MEL-28 and in the test with A549 was > 10 µg/mL throughout.

Consider `C=C1C[C@H]2O[C@H]([C@H]3[C@@H]2[C@](C)(OC(C)=O)CC[C@@H]3C(C)C)[C@](C)(OC(C)=O)CCC1=O` [PALMONINE D], for which the EC50 with P388, in the test with HT-29, with SK-MEL-28 and in the test with A549 was > 10 µg/mL each time.

For `CO[C@H]1CC[C@@](C)(OC(C)=O)[C@@H]2O[C@H](C[C@]1(C)O)[C@@H]1[C@H]2[C@@H](C(C)C)CC[C@@]1(C)O` [PALMONINE C], the EC50 with P388, in the test with HT-29, in the test on SK-MEL-28 and with A549 was > 10 µg/mL in each case.

As for `CO[C@H]1CC[C@@](C)(OC(C)=O)[C@@H]2O[C@H](C[C@]1(C)O)[C@@H]1[C@H]2[C@@H](C(C)C)CC[C@@]1(C)OC(C)=O` [PALMONINE A], the EC50 with P388, with HT-29, in the test on SK-MEL-28 and in the test with A549 was > 10 µg/mL each time.

On to `C=C1C[C@H]2O[C@H]([C@H]3[C@@H]2[C@](C)(OC(C)=O)CC[C@@H]3C(C)C)[C@](C)(OC(C)=O)CC[C@@H]1O` [PALMONINE F], for which the EC50 with P388, with HT-29, with SK-MEL-28 and with A549 was > 10 µg/mL throughout.

Values taken from ChEMBL document CHEMBL1148087, “Structure and absolute configuration of palmonine F, a new eunicellin-based diterpene from the gorgonian Eunicella verrucosa” (1994).
